What follows are molecules tested against T1, hCRTH2 (Homo sapiens, UniProt Q9Y5Y4) (assay: Radioligand Binding Assay B (scintillation proximity assay, [3H]-PGD2, HEK-hCRTH2 membranes)). Conditions: Radioligand Binding Assay B (SPA), values in text.
T1 construct: expressed in transfected cells; host or cells: HEK (human embryonic kidney) cells expressing hCRTH2
T1 sequence (Q9Y5Y4 1-395): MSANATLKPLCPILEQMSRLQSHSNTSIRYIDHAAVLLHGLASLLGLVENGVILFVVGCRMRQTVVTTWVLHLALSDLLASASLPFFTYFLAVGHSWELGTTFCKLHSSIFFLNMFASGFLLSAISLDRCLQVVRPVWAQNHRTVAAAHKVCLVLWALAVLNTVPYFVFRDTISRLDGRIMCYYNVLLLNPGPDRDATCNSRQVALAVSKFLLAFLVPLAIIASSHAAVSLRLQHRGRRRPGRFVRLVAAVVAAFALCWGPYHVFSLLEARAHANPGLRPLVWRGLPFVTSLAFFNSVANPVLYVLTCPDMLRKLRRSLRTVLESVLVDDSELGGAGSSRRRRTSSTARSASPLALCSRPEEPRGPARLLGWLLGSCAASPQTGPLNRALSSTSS
Description: Radioligand binding also was performed using scintillation proximity assay (SPA) technology in a similar way as described above in Radioligand Binding Assay A with minor modification. Assays were done at room temperature in 10 mM HEPES pH 7.4, 1 mM EDTA containing 2 mM MnCl2 and 16 nM [^3H]-PGD2 (PerkinElmer, Waltham, Mass.) (164 Ci mmol^−1), in a final volume of 0.05 mL. Competing ligands were diluted in dimethylsulfoxide (Me2SO) and added using very low volumes (50 nL). The reaction was initiated by the addition of a mixture of 3.52 μg of membrane protein prepared from a human embryonic kidney (HEK)-hCRTH2 cell line adhered to 140 ug of wheatgerm agglutinin SPA beads (PerkinElmer). Total and non-specific binding were determined in the absence and the presence of 10 μM of a CRTH2 antagonist, respectively. The reaction was routinely conducted for 60 min at room temperature followed by centrifugation for 5 minutes at 1000 RPM. The radioactivity was measured with a TopCountNXT (PerkinElmer). Results determined using the SPA-based assay were similar to those from the filtration binding assay.

Question: For `CC1(C)CC(NC(=O)c2ccc3nc(-c4ccc(Cl)cc4)c(CCCCC(=O)O)cc3c2)c2ccccc2O1` (centres unmarked) [Compound 5BH, 5-(2-(4-chlorophenyl)-6-((2,2-dimethylchroman-4-yl)carbamoyl)quinolin-3-yl)pentanoic acid], which Ki is on record?
Answer: The Ki was 27.3 nM.

Question: `Cc1cccc(N2CCN(C(=O)c3ccc4nc(-c5ccc(Cl)cc5)c(CCCCC(=O)O)cc4c3)CC2)c1` [Compound 5BR, 5-(2-(4-chlorophenyl)-6-(4-(m-tolyl)piperazine-1-carbonyl)quinolin-3-yl)pentanoic acid] was tested. Which Ki did it give?
Answer: The Ki was 7.4 nM.

Same assay, conditions: Table B, Radioligand Binding Assay B (SPA), rated A-D

Question: For `CN(Cc1ccc(F)cc1)C(=O)c1ccc2nc(-c3ccc(Cl)cc3)c(CCCCC(=O)O)cc2c1` [Compound 5BG, 5-(2-(4-chlorophenyl)-6-((4-fluorobenzyl)(methyl)carbamoyl)quinolin-3-yl)pentanoic acid], which Ki is on record?
Answer: The Ki was 2.1 to 20 nM.

Question: With `CC1(C)CC(NC(=O)c2ccc3nc(-c4ccc(Cl)cc4)c(CCCCC(=O)O)cc3c2)c2ccccc2O1` (centres unmarked) [Compound 5BH, 5-(2-(4-chlorophenyl)-6-((2,2-dimethylchroman-4-yl)carbamoyl)quinolin-3-yl)pentanoic acid] as the molecule, how does the Ki read?
Answer: The Ki was 20.1 to 200 nM.

Question: `O=C(O)CCCCc1cc2cc(C(=O)NC3CC(=O)Nc4ccccc43)ccc2nc1-c1ccc(Cl)cc1` (centres unmarked) [Compound 5BJ, 5-(2-(4-chlorophenyl)-6-((2-oxo-1,2,3,4-tetrahydroquinolin-4-yl)carbamoyl)quinolin-3-yl)pentanoic acid] was tested. Which Ki did it give?
Answer: The Ki was 2.1 to 20 nM.

Question: With `O=C(O)CCCCc1cc2cc(C(=O)N3CC(c4ccccc4)C3)ccc2nc1-c1ccc(Cl)cc1` [Compound 5BK, 5-(2-(4-chlorophenyl)-6-(3-phenylazetidine-1-carbonyl)quinolin-3-yl)pentanoic acid] as the molecule, how does the Ki read?
Answer: Its Ki is 2.1 to 20 nM.

Question: Which Ki does the source give for `O=C(O)CCCCc1cc2cc(C(=O)NCc3ccccc3)ccc2nc1-c1ccc(Cl)cc1` [Compound 5BL, 5-(6-(benzylcarbamoyl)-2-(4-chlorophenyl)quinolin-3-yl)pentanoic acid] here?
Answer: Its Ki is 2.1 to 20 nM.

Question: `N#Cc1ccccc1N1CCN(C(=O)c2ccc3nc(-c4ccc(Cl)cc4)c(CCCCC(=O)O)cc3c2)CC1` [Compound 5BM, 5-(2-(4-chlorophenyl)-6-(4-(2-cyanophenyl)piperazine-1-carbonyl)quinolin-3-yl)pentanoic acid] was tested. Which Ki did it give?
Answer: The Ki was 2.1 to 20 nM.

Question: How did the Ki turn out when `COc1ccccc1C1CCN(C(=O)c2ccc3nc(-c4ccc(Cl)cc4)c(CCCCC(=O)O)cc3c2)CC1` [Compound 5BN, 5-(2-(4-chlorophenyl)-6-(4-(2-methoxyphenyl)piperidine-1-carbonyl)quinolin-3-yl)pentanoic acid] was run?
Answer: The Ki was 2.1 to 20 nM.

Question: With `O=C(O)CCCCc1cc2cc(C(=O)N3CCN(c4ccccc4Cl)CC3)ccc2nc1-c1ccc(Cl)cc1` [Compound 5BP, 5-(2-(4-chlorophenyl)-6-(4-(2-chlorophenyl)piperazine-1-carbonyl)quinolin-3-yl)pentanoic acid] as the molecule, how does the Ki read?
Answer: Its Ki is 20.1 to 200 nM.

Question: Which Ki does the source give for `Cc1ccccc1N1CCN(C(=O)c2ccc3nc(-c4ccc(Cl)cc4)c(CCCCC(=O)O)cc3c2)CC1` [Compound 5BQ, 5-(2-(4-chlorophenyl)-6-(4-(o-tolyl)piperazine-1-carbonyl)quinolin-3-yl)pentanoic acid] here?
Answer: The Ki was 2.1 to 20 nM.

Question: How did the Ki turn out when `Cc1cccc(N2CCN(C(=O)c3ccc4nc(-c5ccc(Cl)cc5)c(CCCCC(=O)O)cc4c3)CC2)c1` [Compound 5BR, 5-(2-(4-chlorophenyl)-6-(4-(m-tolyl)piperazine-1-carbonyl)quinolin-3-yl)pentanoic acid] was run?
Answer: The Ki was 2.1 to 20 nM.

Question: Which Ki does the source give for `COc1ccc(N2CCN(C(=O)c3ccc4nc(-c5ccc(Cl)cc5)c(CCCCC(=O)O)cc4c3)CC2)cc1` [Compound 5BS, 5-(2-(4-chlorophenyl)-6-(4-(4-methoxyphenyl)piperazine-1-carbonyl)quinolin-3-yl)pentanoic acid] here?
Answer: The Ki was 2.1 to 20 nM.

Question: With `Cc1ccc(N2CCN(C(=O)c3ccc4nc(-c5ccc(Cl)cc5)c(CCCCC(=O)O)cc4c3)CC2)cc1` [Compound 5BT, 5-(2-(4-chlorophenyl)-6-(4-(p-tolyl)piperazine-1-carbonyl)quinolin-3-yl)pentanoic acid] as the molecule, how does the Ki read?
Answer: Its Ki is 2.1 to 20 nM.

Question: `O=C(O)CCCCc1cc2cc(C(=O)N3CCN(c4ccc(F)cc4)CC3)ccc2nc1-c1ccc(Cl)cc1` [Compound 5BU, 5-(2-(4-chlorophenyl)-6-(4-(4-fluorophenyl)piperazine-1-carbonyl)quinolin-3-yl)pentanoic acid] was tested. Which Ki did it give?
Answer: Its Ki is 2.1 to 20 nM.

Question: With `CC1(C)CCC(NC(=O)c2ccc3nc(-c4ccc(Cl)cc4)c(CCCCC(=O)O)cc3c2)c2ccccc21` (centres unmarked) [Compound 5Bi, 5-(2-(4-chlorophenyl)-6-((4,4-dimethyl-1,2,3,4-tetrahydronaphthalen-1-yl)carbamoyl)quinolin-3-yl)pentanoic acid] as the molecule, how does the Ki read?
Answer: Its Ki is 2.1 to 20 nM.

Question: For `O=C(O)CCCCc1cc2cc(C(=O)N3CCC4(CC3)OCc3ccccc34)ccc2nc1-c1ccc(Cl)cc1` [Compound 5Bo, 5-(2-(4-chlorophenyl)-6-(3H-spiro[isobenzofuran-1,4′-piperidin]-1′-ylcarbonyl)quinolin-3-yl)pentanoic acid], which Ki is on record?
Answer: Its Ki is 2.1 to 20 nM.
